Assay results from patent US20110165115A1, “SYNERGISTIC ATTRACTANTS FOR PESTIFEROUS SOCIAL INSECTS” (STERLING INTERNATIONAL INC., priority 2010, published 2011).
Where two headings read alike, the source gives them in different places.

Columns and labels:
[1] = test system: V. pensylvanica; test: Field trapping Experiment 1, Rescue W•H•Y traps; format: in vivo, Vespula pensylvanica; conditions: Exp 1; HIPV added to WHY attractant in the top chamber, or WHY alone
Method: (§1) Three field trapping experiments were carried out during late July to early August 2009, in residential and woody areas around Spokane, Wash., USA, using the newly marketed Rescue® W•H•Y traps (www.rescue.com). As used herein, the W•H•Y trap is a trap in accordance with the description of United States Patent Application Publication No. 2009/0151228. The W•H•Y trap has a top chamber and a bottom chamber. The top chamber is baited with two attractants—one of which is a solid contained in a vial (2-methyl-1-butanol) and the other a liquid mixed with water (acetic acid), herein referred to as the W•H•Y top attractant. The bottom chamber is baited with a liquid attractant (heptyl butyrate) poured onto a cotton pad, herein referred to as the W•H•Y bottom attractant. Separation of the top and bottom attractants (otherwise antagonistic to each other when released from the same chamber) in two chambers was a design feature of this trap and creates two focal attraction sources from one trap for different species of wasps, hornets, and yellowjackets. Traps were hung 1.5-2.0 m above the ground on either the fence or tree branches ca. 5 m apart within each trap line. For each trapping experiment, six sets of traps were deployed with their initial trap positions within each set being randomized. To minimize positional effects and obtain more replications, wasp collections and trap re-randomization were carried out when ≧10-20 wasps were caught in the best trap. Each replicate lasted several days depending on wasp flight activity. Captured wasps were removed from the traps and kept in the zip-bags before taking back to the laboratory for recording of the species, gender status, and catch.
(§2) Experiment 3 (Aug. 5-13, 2009) was conducted to determine the potential behavioral activity of different doses of (E)-4,8-dimethyl-1,3,7-nonatriene alone. The individual (or different doses) HIPVs were loaded into either polyethylene bags or centrifuge tube type of dispensers, and released from the top of the W•H•Y trap chamber. W•H•Y trap attractants (both top and bottom or top only) alone and water (top chamber only) were included in the test as positive and blank controls, respectively. The dispenser types, loading and release rates of the tested semiochemicals are described in Tables 1, 2 and 3.
(§3) Trap catch data were converted to proportion (P) of total captured wasps within each replicate. Data were then transformed by arcsin√P to meet the assumptions of normality and homogeneity of variances for ANOVA. Means were compared by ANOVA followed by the Ryan-Einot-Gabriel-Welsh (REGW) multiple Q test (SPSS 16.0 for Windows) at α=0.05.

[2] = test system: V. vulgaris; test: Field trapping Experiment 1, Rescue W•H•Y traps; format: in vivo, Vespula vulgaris; conditions: Exp 1; HIPV added to WHY attractant in the top chamber, or WHY alone
Method: as §1, §2, §3

[3] = test system: D. maculata; test: Field trapping Experiment 1, Rescue W•H•Y traps; format: in vivo, Dolichovespula maculata; conditions: Exp 1; HIPV added to WHY attractant in the top chamber, or WHY alone
Method: as §1
(§4) Experiment 1 (Jul. 22-30, 2009) tested ten synthetic HIPV candidates [(E)-2-hexenal, (Z)-3-hexen-1-ol, (Z)-3-hexenyl acetate, cis-ocimene, linalool, methyl salicylate, geranyl acetate, trans-β-caryophyllene, trans-β-farnesene and (E)-4,8-dimethyl-1,3,7-nonatriene], including several paper wasp EAD-active compounds (see FIG. 2 for details), to determine their potential synergistic effect on the Rescue® W•H•Y trap attractants to paper wasps, yellowjackets, and hornets. Experiment 2 (Aug. 5-13, 2009) tested behavioral responses of the paper wasps and yellowjackets to the Rescue® W•H•Y trap attractants (top attractants only) and its combination with (E)-4,8-dimethyl-1,3,7-nonatriene, one of the EAD-active and behaviorally significant HIPVs, in a dose-response fashion. Experiment 3 (Aug. 5-13, 2009) was conducted to determine the potential behavioral activity of different doses of (E)-4,8-dimethyl-1,3,7-nonatriene alone. The individual (or different doses) HIPVs were loaded into either polyethylene bags or centrifuge tube type of dispensers, and released from the top of the W•H•Y trap chamber. W•H•Y trap attractants (both top and bottom or top only) alone and water (top chamber only) were included in the test as positive and blank controls, respectively. The dispenser types, loading and release rates of the tested semiochemicals are described in Tables 1, 2 and 3.
as §3

[4] = test system: D. arenaria; test: Field trapping Experiment 1, Rescue W•H•Y traps; format: in vivo, Dolichovespula arenaria; conditions: Exp 1; HIPV added to WHY attractant in the top chamber, or WHY alone
Method: as §1, §4, §3

[5] = test system: V. atropilosa; format: in vivo, Vespula atropilosa; conditions: Exp 1; HIPV added to WHY attractant in the top chamber, or WHY alone
Method: as §1, with “catch. […]” for “catch.”
as §3

[6] = test system: V. acadica; test: Field trapping Experiment 1, Rescue W•H•Y traps; format: in vivo, Vespula acadica; conditions: Exp 1; HIPV added to WHY attractant in the top chamber, or WHY alone
Method: as §1, §2, §3

[7] = test system: V. consobrina; format: in vivo, Vespula consobrina; conditions: Exp 1; HIPV added to WHY attractant in the top chamber, or WHY alone
Method: as §1, with “catch. […]” for “catch.”
as §3

[8] = test system: P. dominulus; test: Field trapping Experiment 1, Rescue W•H•Y traps; format: in vivo, Polistes dominulus; conditions: Exp 1; HIPV added to WHY attractant in the top chamber, or WHY alone
Method: as §1, §2, §3

[9] = test system: P. aurifer; test: Field trapping Experiment 1, Rescue W•H•Y traps; format: in vivo, Polistes aurifer; conditions: Exp 1; HIPV added to WHY attractant in the top chamber, or WHY alone
Method: as §1, §2, §3

[10] = test system: P. dominulus workers antennae; test: GC-EAD of synthetic mixture of known HIPVs; design: species or system Polistes dominulus; conditions: 100 ng/μl each in hexane
Method: Aeration samples of the cherry branches (damaged or undamaged/slightly damaged) were injected (3 μl) splitless into a Varian CP-3800 GC equipped with a polar column (HP-INNOWax; 30 m×0.53 mm×1.0 μm film thickness; Agilent Technologies, Wilmington, Del., USA) and a 1:1 effluent splitter that allowed simultaneous flame ionization detection (FID) and electroantennographic detection (EAD) of the European paper wasp (Polistes dominulus) worker antennae to the separated volatile compounds. Helium was used as the carrier gas, and the injector and detector temperatures were 250° C. and 300° C., respectively. Column temperature was 50° C. for 1 min, rising to 240° C. at 10° C./min, and then held for 10 min. The outlet for the EAD was held in a humidified air stream flowing at 0.5 m/sec over the antennal preparation. EAD recordings were made using silver wire-glass capillary electrodes filled with Beadle-Ephrussi Ringer on freshly cut antennae. The antennal signals were stored and analyzed on a PC equipped with a serial IDAC interface box and the program EAD ver. 2.5 (Syntech, Hilversum, The Netherlands). In addition, GC-EAD responses to a synthetic mixture (100 ng/μl each) containing nine known HIPVs including cis-3-hexen-1-ol, cis-3-hexenyl acetate, trans-β-ocimene, (E)-4,8-dimethyl-1,3,7-nonatriene, linalool, methyl salicylate, geranyl acetate, trans-β-caryophyllene and trans-β-farnesene were tested on the P. dominulus workers. (See FIG. 2.) The same chemicals were also tested on beneficial insect antennae from Chrysopa oculata, Myrmeleon crudelis, Podisus maculiventris, and Hippodarnia convergens. (See FIG. 6.) Antennally active peaks in the aeration samples were identified by GC-MS on an HP 6890 GC series coupled with an HP 5973 Mass Selective Detector using the same type of GC column and conditions as described above. Compounds were identified by comparison of retention times with those of authentic standards and with mass spectra of standards.

[11] = test system: V. pensylvanica; conditions: background; cited from earlier work
[12] = test system: yellowjackets; test: Field trapping Experiment 1, top chamber catches; format: in vivo; conditions: Exp 1; HIPV combined with W•H•Y attractant (acetic acid and 2-methyl-1-butanol) in the top chamber
Method: as §1
Experiment 3 (Aug. 5-13, 2009) was conducted to determine the potential behavioral activity of different doses of (E)-4,8-dimethyl-1,3,7-nonatriene alone. The individual (or different doses) HIPVs were loaded into either polyethylene bags or centrifuge tube type of dispensers, and released from the top of the W•H•Y trap chamber. […]

[13] = test system: V. atropilosa; format: in vivo, Vespula atropilosa; conditions: Exp 1; HIPV added to WHY attractant in the top chamber, or WHY alone; remark: listed apart in the source
[14] = test system: Polistes dominulus worker antennae; test: GC-EAD of cherry branch aeration samples; conditions: aeration of severely damaged cherry branches; at current release rates
Method: Lapin cherry branches with severely damaged cherries and leaves and undamaged or slightly damaged branches were collected from a cherry orchard at Creston, Canada, on Jul. 29, 2009, and were transported to the Sterling International, Inc. lab (Spokane, Wash.) on the same day and kept at 4° C. before aerations. Headspace volatiles from the cherry branches (damaged or undamaged) were sampled by a battery operated pump and a high density polyacetate oven bag (48.2×59.6 cm Reynolds® Oven Bag; Richmond, Va., USA) enclosure with one activated charcoal filter tube in the air inlet, on Jul. 30, 2009. The volatiles in the enclosure were trapped on one Porapak Q tube (50/80 mesh; 30 mg in Teflon tube: 3 mm×35 mm) for 2.5 hr (airflow 300 ml/min) and extracted with 1 ml redistilled pentane. Aeration samples of the cherry branches (damaged or undamaged/slightly damaged) were injected (3 μl) splitless into a Varian CP-3800 GC equipped with a polar column (HP-INNOWax; 30 m×0.53 mm×1.0 μm film thickness; […] Helium was used as the carrier gas, and the injector and detector temperatures were 250° C. and 300° C., respectively. Column temperature was 50° C. for 1 min, rising to 240° C. at 10° C./min, and then held for 10 min. The outlet for the EAD was held in a humidified air stream flowing at 0.5 m/sec over the antennal preparation. EAD recordings were made using silver wire-glass capillary electrodes filled with Beadle-Ephrussi Ringer on freshly cut antennae. The antennal signals were stored and analyzed on a PC equipped with a serial IDAC interface box and the program EAD ver. 2.5 (Syntech, Hilversum, The Netherlands). […] (See FIG. 2.) The same chemicals were also tested on beneficial insect antennae from Chrysopa oculata, Myrmeleon crudelis, Podisus maculiventris, and Hippodarnia convergens. (See […] active peaks in the aeration samples were identified by GC-MS on an HP 6890 GC series coupled with an HP 5973 Mass Selective Detector using the same type of GC column and conditions as described above. Compounds were identified by comparison of retention times with those of authentic standards and with mass spectra of standards.

[15] = test system: yellowjackets occurring in the Eastern United States, hornets and paper wasps; conditions: background; cited from earlier work

Row | SMILES | Total Yellowjacket Catches V. pensylvanica [1] | Total Yellowjacket Catches V. vulgaris [2] | Total Yellowjacket Catches D. maculata [3] | Total Yellowjacket Catches D. arenaria [4] | Total Yellowjacket Catches V. atropilosa [5] | Total Yellowjacket Catches V. acadica [6] | Total Yellowjacket Catches V. consobrina [7] | Total Paper Wasps P. dominulus [8] | Total Paper Wasps P. aurifer [9] | EAD response of worker antennae [10] | attraction [11] | effect on trap catches of yellowjackets in the top chambers [12] | Total Yellowjacket Catches V. atropilosa [13] | EAD response of worker antennae [14] | attraction [15]
1 | C=C1CC/C=C(\C)CC[C@@H]2[C@@H]1CC2(C)C (relative stereo) [β-Caryophyllene, trans-β-caryophyllene] | 234 | 51 | 0 | 5 | 1 | 2 | 1 | 35 | 12 | No repeatable EAD-responses |  |  |  |  | 
2 | CC=CC=CCOC(=O)CCC [2,4-hexadienyl butyrate] |  |  |  |  |  |  |  |  |  |  | powerfully attractive |  |  |  | 
3 | C=CC(=C)CC/C=C(\C)CCC=C(C)C [E-β-Farnesene, trans-β-farnesene] | 321 | 36 | 8 | 10 | 1 | 0 | 0 | 29 | 13 | No repeatable EAD-responses |  |  |  |  | 
4 | CC(=O)OC/C=C(\C)CCC=C(C)C [Geranyl Acetate, geranyl acetate] | 128 | 18 | 1 | 2 |  | 0 | 1 | 13 | 4 | responded consistently |  | inhibitory effect | 2 |  | 
5 | C=C/C(C)=C/CC=C(C)C [Ocimene, cis-ocimene] | 402 | 52 | 17 | 11 | 2 | 0 | 0 | 29 | 17 |  |  | significant synergistic effect |  | did not elicit significant EAD-responses | 
6 | CCCCCCCOC(=O)CCC [heptyl butyrate] |  |  |  |  |  |  |  |  |  |  | as attractive |  |  |  | ineffective
